Experimental data: PubChem BioAssay (NCI)
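Where inhibition never reached the appropriate level, the endpoint shown equals the highest concentration tested. Otherwise, values were interpolated linearly from a five-concentration, 48-hour dose response in 96-well plates. Here, GI50 denotes the concentration required for 50% inhibition of growth. TGI denotes the concentration required for complete inhibition of growth.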

Experiments:
Assay in all cases: NCI tumour cell line growth inhibition, 48 h
[1] = tested on: A498 renal
[2] = tested on: BT-549 breast
[3] = tested on: IGROV1 ovarian
[4] = tested on: SN12C renal
[5] = tested on: SW-620 colon
[6] = tested on: UACC-257 melanoma
[7] = tested on: UACC-62 melanoma
[8] = tested on: UO-31 renal
[9] = tested on: OVCAR-3 ovarian
[10] = tested on: SF-295 CNS

SMILES | TGI [1] | TGI [2] | TGI [3] | TGI [4] | TGI [5] | TGI [6] | TGI [7] | TGI [8] | TGI [9] | TGI [10] | GI50 [5] | GI50 [7] | GI50 [1] | GI50 [3] | GI50 [9] | GI50 [4] | GI50 [6] | GI50 [8]
Cc1ccc2nc(-c3nccn3C)cc(C(=O)NC(C)CN(C)C)c2c1 (configuration not stated) | > 100 µM | > 100 µM | > 100 µM | > 100 µM | > 100 µM | > 100 µM | > 100 µM | > 100 µM | – | – | – | – | – | – | – | – | – | –
O=C(O)c1ccccc1/C=N\N(CCO)C1=NCCN1 | – | > 100 µM | > 100 µM | > 100 µM | > 100 µM | – | > 100 µM | > 100 µM | > 100 µM | > 100 µM | – | – | – | – | – | – | – | –
CN(CCO)c1nc(=O)c2c(n1C1OC(CO)C(O)C(O)C1O)CCCC2 (configuration not stated) | – | – | > 100 µM | > 100 µM | > 100 µM | > 100 µM | > 100 µM | > 100 µM | > 100 µM | > 100 µM | – | – | – | – | – | – | – | –
CCOC(=O)C(C(=O)OCC)S(C)(=O)=O | > 100 µM | – | > 100 µM | > 100 µM | > 100 µM | > 100 µM | > 100 µM | > 100 µM | > 100 µM | > 100 µM | – | – | – | – | – | – | – | –
O=C1/C(=C/c2cccc([N+](=O)[O-])c2)Cc2ccccc21 | – | > 100 µM | > 100 µM | > 100 µM | > 100 µM | > 100 µM | > 100 µM | > 100 µM | > 100 µM | > 100 µM | – | – | – | – | – | – | – | –
NCCCC(N)(C(=O)O)C(F)F (configuration not stated) | > 5000 µM | – | > 5000 µM | > 5000 µM | > 5000 µM | > 5000 µM | > 5000 µM | > 5000 µM | > 5000 µM | > 5000 µM | – | – | – | – | – | – | – | –
Cc1ccc(C(CCO)CCO)nc1 | > 100 µM | > 100 µM | – | > 100 µM | > 100 µM | > 100 µM | > 100 µM | > 100 µM | > 100 µM | > 100 µM | – | – | – | – | – | – | – | –
COc1cc(Cn2c3ccccc3c3cc(C)cc(OC)c32)cc2c1[nH]c1ccccc12 | – | – | > 25 µM | > 25 µM | > 25 µM | – | > 25 µM | > 25 µM | > 25 µM | – | 13.4 µM | 15 µM | – | – | – | – | – | –
CC(=O)C(C(=O)C(=O)Nc1cc(Cl)c(Cl)cc1Cl)c1csc(N)n1 (configuration not stated) | > 100 µM | – | > 100 µM | > 100 µM | > 100 µM | > 100 µM | > 100 µM | > 100 µM | – | > 100 µM | – | – | – | – | – | – | – | –
CN(C)C1(N(C)C)Oc2c(c(=O)n(C)c(=O)n2C)C(c2ccc(F)cc2)C1(F)F (configuration not stated) | > 100 µM | > 100 µM | – | – | > 100 µM | > 100 µM | > 100 µM | > 100 µM | > 100 µM | > 100 µM | – | – | – | – | – | – | – | –
CC(C)(CN1CCCCC1)C(=O)CC(SCCS(=O)(=O)O)c1ccccc1 (configuration not stated) | 32.1 µM | 49.4 µM | > 100 µM | 58.6 µM | 28.8 µM | – | 29.5 µM | 25.1 µM | 29.8 µM | 26.5 µM | – | – | – | – | – | – | – | –
COc1cc2cnc3c4cc(O)ccc4ccc3c2cc1OC | – | – | > 100 µM | > 100 µM | > 100 µM | > 100 µM | > 100 µM | > 100 µM | > 100 µM | > 100 µM | – | – | – | – | – | – | – | –
O=S1(=O)OCCOS(=O)(=O)C1(Br)Br | – | – | – | > 100 µM | > 100 µM | > 100 µM | > 100 µM | > 100 µM | > 100 µM | > 100 µM | – | – | – | – | – | – | – | –
COc1cc(C2SCC(=O)N2c2ccc(Cl)cc2)cc(OC)c1OC (configuration not stated) | > 100 µM | > 100 µM | > 100 µM | > 100 µM | > 100 µM | > 100 µM | – | > 100 µM | > 100 µM | > 100 µM | – | – | – | – | – | – | – | –
CC(c1ccccc1)n1c2ccccc2c2c(N)ncnc21 (configuration not stated) | 30.3 µM | – | 38.2 µM | – | 47.4 µM | 31.2 µM | – | 22.2 µM | 30.6 µM | 36.6 µM | – | – | – | – | – | – | – | –
COc1ccccc1NC(=O)C(=O)C(c1cnc2ccc([N+](=O)[O-])cc2n1)[N+](=O)[O-] (configuration not stated) | > 100 µM | – | > 100 µM | > 100 µM | > 100 µM | > 100 µM | > 100 µM | > 100 µM | – | > 100 µM | – | – | – | – | – | – | – | –
CCOC(=O)c1c(Br)c(-c2ccc([N+](=O)[O-])cc2)c(Br)n1C | > 10 µM | > 10 µM | > 10 µM | > 10 µM | – | > 10 µM | > 10 µM | > 10 µM | > 10 µM | > 10 µM | – | – | – | – | – | – | – | –
C/C(CC(=O)Nc1cccc([N+](=O)[O-])c1)=N/NC(N)=S | – | – | > 100 µM | – | > 100 µM | > 100 µM | > 100 µM | > 100 µM | > 100 µM | > 100 µM | – | – | – | – | – | – | – | –
O=C1CS(=O)c2ccccc2N1 (configuration not stated) | > 100 µM | – | > 100 µM | > 100 µM | – | > 100 µM | > 100 µM | > 100 µM | > 100 µM | > 100 µM | – | – | – | – | – | – | – | –
CCOC(=O)NC(C(F)(F)F)(C(F)(F)F)P(=O)(OCC)OCC | > 100 µM | > 100 µM | > 100 µM | > 100 µM | > 100 µM | – | > 100 µM | 85.5 µM | > 100 µM | > 100 µM | – | – | – | – | – | – | – | –
Cn1cc(-c2csc(-c3cn(CCCN4CCCCC4)c4ccc(Br)cc34)n2)c2cccnc21 | 14 µM | – | 3.33 µM | 3.31 µM | 3.26 µM | 3.43 µM | 3.4 µM | 2.89 µM | 3.38 µM | – | 1.82 µM | 1.78 µM | 3.69 µM | 1.63 µM | 1.8 µM | 1.74 µM | 1.8 µM | 1.51 µM
COc1c(N2CCCCC2)c2c(=O)c3ccccc3oc2c2c3ccccc3n(C)c12 | – | > 100 µM | – | > 100 µM | > 100 µM | > 100 µM | > 100 µM | > 100 µM | > 100 µM | > 100 µM | – | – | – | – | – | – | – | –
S=C1C(CCCOCc2ccccc2)C2CCCC23CC2(CCN13)OCCS2 (configuration not stated) | > 10 µM | – | > 10 µM | > 10 µM | > 10 µM | > 10 µM | – | > 10 µM | > 10 µM | > 10 µM | – | – | – | – | – | – | – | –
